Patent US20210069147A1, “PHARMACEUTICAL COMBINATION AND USES THEREOF” (BIONOMICS LIMITED, priority 2015, published 2021)

Columns and labels:
IL-12 subunit p40 = test: Plasma biomarker analysis, Phase II mesothelioma trial (Multi-Analyte Profile); type: in vivo, human; conditions: patients, BNC105 16 mg/m2 monotherapy
Description: FIG. 4. Changes in levels of IL-12 p40 and II: 10 following administration with BNC105. Phase II Mesothelioma trial BNC105 (16 mg/m2) number of patients=19. Blood draws were pre-specified and optional. Patients receiving BNC105 alone received blood draws prior to BNC105 administration and 3 hours following administration. Plasma samples were used to determine exploratory analytes using Multi-Analyte Profile (MAP) technology (Myriad RBM). Graph showing % change from baseline. Percent change was calculated as analyse plasma concentration (post-baseline)/baseline*100. Mean±SEM shown on graph.
The balance between pro-inflammatory and anti-inflammatory signals provided by different immune cell populations is crucial for normal physiology and the suppression of cancer development. By altering this homeostasis an opportunity is provided for the immune system to alter the way it responds. Biomarker analysis on patient samples was conducted from a Phase II BNC105 monotherapy mesothelioma trial. […] The immune-modulatory cytokine IL-12 subunit p40, a key member of the IL-12 cytokine family, has emerged as a potent inducer of antitumor immunity. IL-12 subunit p40 is secreted by activated macrophages and serves as an essential inducer of Th1 cells development.

MC38 murine colon tumor = test: Efficacy in syngeneic MC38 murine colon tumor model; type: in vivo, mouse (C57/BL6); conditions: Day 17; C57/BL6 mice with s.c. MC38 tumors; BNC105P 10 mg/kg i.v. Day 1, 8, 15; anti-PD1 (Clone RMP1-14) 3.5 mg/kg i.p. Day 1, 4, 8, 12, 16
Description: The present inventors conducted a study to determine the efficacy of BNC105 in combination with the immunotherapeutic anti-PD1 antibody in the syngeneic MC38 murine colon tumor model. BNC105P was administered at 10 mg/kg i.v., on Day 1, 8 and 15, anti-PD1 antibody (Clone RMP1-14) was administered at 3.5 mg/kg i.p. on Day 1, 4, 8, 12 and 16. C57/BL6 mice were inoculated subcutaneously with MC38 cells. When tumors reached a volume of approximately 100-150 mm3 animals were randomised into groups of 10 mice per group.
1. Saline+PBS control 2. Saline+IgG2a isotypc control antibody 3. BNC105P+IgG2a isotype control antibody 4. Saline+anti-PD1 antibody 5. BNC105P+anti-PD1 antibody
The in-life pan of this study was completed on Day 18 of the treatment period due to tumor size in the control groups reaching the ethical limit. Tumors and blood were collected for FACS analysis and also tumors were collected for histology. FACS analysis and histology is currently under way and is aimed at identifying changes of immune T-cell populations following treatment.

[1] = tested on: tumor infiltrating macrophages (CD11b+); test: Number of tumor infiltrating macrophages; type: in vivo; conditions: after treatment, monotherapy and combination (FIG. 5)
Source text: FIG. 5. Reduction in the number of tumor infiltrating macrophages (CD11b+) after treatment with BNC105 (monotherapy and combination).
This reduction would dramatically change the immune environment potentially releasing the immune dampening effect of macrophage subsets.

CT26 murine colon tumor = test: Efficacy in syngeneic CT26 murine colon tumor model; type: in vivo, mouse (Balb/c); conditions: Day 11; Balb/c mice with s.c. CT26 tumors; BNC105 10 mg/kg Days 1 and 8; anti-CTLA4 (Clone 9D9) 10 mg/kg i.p. Days 2, 5, 9
Description: The present inventors conducted a separate study to determine the efficacy of BNC105 in combination with the immune-oncology therapeutic antibody anti-CTLA4 in the syngeneic CT26 murine colon tumor model. BNC105 (10 mg/kg) was administered on Days 1 and 8, the anti-CTLA4 antibody (Clone 9D9) was administered at 10 mg/kg i.p. on Days 2, 5, and 9. Balb/c mice were inoculated subcutaneously with C1′26 cells. When tumors reached an average volume of approximately 135 mm3 animals were randomised into 5 groups of 10 mice per group.
1. Saline+PBS control 2. Saline+IgG2b isotype control, antibody 3. BNC105P+IgG2b isotype control antibody 4. Saline+anti-CTLA4 antibody 5. BNC105P+anti-CTLA4 antibody
The in-life part of this study was completed on Day 12 of the treatment period due to tumor sizes in the control groups reaching ethical limits. Tumors were collected for both FAGS analysis and for histology. FAGS analysis and histology arc currently in progress and aim to identify changes of immune T-cell populations following treatment.

IFNγ = test: Tumoral levels of IFNγ; type: in vivo; conditions: 16 mg/kg BNC105 versus saline (FIG. 3)
Description: FIG. 3. Tumoral levels of IFNγ in animals administered with saline or 16 mg/kg BNC105.
(§1) BNC105 primes the immunogenic potential of a tumor with increased tumoral IFNγ content compared to control treated animals (FIG. 3). IFNγ is secreted from CD4+ Th1, CD8+ and Th0 cells and activated NK cells.

[2] = tested on: tumor vasculature (Renca); test: Vascular stain perfusion in murine orthotopic model of Renal Cancer (Renca); type: in vivo; conditions: perfusion of a vascular stain
Source text: In a murine orthotopic model of Renal Cancer (Renca) the present inventors have shown using perfusion of a vascular stain that tumor blood vessels arc obliterated after BNC105 treatment compared to normal tissue which remains unaffected.

CD3+/CD8+ cells = test: Tumoral CD3+/CD8+ cells; conditions: in vivo
Source text: as §1

normal tissue vasculature after treatment [2]	Structure (SMILES)	plasma IL-12 subunit p40 post administration (IL-12 subunit p40; 3 hours following administration versus baseline)	plasma IL-12 subunit p40 at Day 8 post dosing (IL-12 subunit p40; Day 8)	tumor growth inhibition (TGI) (MC38 murine colon tumor)	number of tumor infiltrating macrophages (CD11b+) [1]	tumor growth inhibition (CT26 murine colon tumor)	tumoral IFNγ content compared to control treated animals (IFNγ)	tumor blood vessels after treatment [2]	change in tumoral CD3+/CD8+ cells (CD3+/CD8+ cells)
unaffected	COc1cc(C(=O)c2c(C)oc3c(O)c(OC)ccc23)cc(OC)c1OC [BNC105, 2-methyl-7-hydroxy-3-(3,4,5-trimethoxybenzoyl)-6-methoxybenzofuran]	significantly increases	remains elevated	40%	significant reduction	27%	increased	obliterated	No change
	COc1cc(C(=O)c2c(C)oc3c(OP(=O)([O-])[O-])c(OC)ccc23)cc(OC)c1OC.[Na+].[Na+] [BNC105P, di sodium [6-methoxy-2-methyl-3-(3,4,5-trimethoxybenzoyl)-1-benzofuran-7-yl] phosphate]			40%		27%			
